# Read-outs that look alike come from different tables or passages of the source. Ends that are not written are not given here.
# How the values were obtained:
# [1] = test system: Clone 18; assay: MTT assay of drug sensitivity, Clone 18 cells; settings: for Effect on taxol resistance / taxol cytotoxicity of clone 18: agent added with taxol, MTT assay; for Fold of resistance (Clone 18/M2182tTA): IC50 of clone 18 divided by IC50 of M2182tTA
# Protocol: (§1) For subsequent plate assays of the effects of taxol and other drugs on colony formation, 1×10^4 cells per 10 cm plate or per each well of six-well plate were seeded one day prior to drug treatment at the concentrations indicated. After 7 to 14 days exposure to drug, the resistant colonies were stained with 0.5% crystal violet solution and photographed. For quantitative determination of the surviving fraction, the collection of crystal violet stained colonies were incubated with 0.5 ml of DMSO overnight and the absorbance at 570 nm of dye extracted solution was measured. The fraction of surviving cells was calculated relative to non-treated controls. Results were averaged from at least two to three independent experiments. For IC50 determination, 3×10^3 cells per well of a 96-well plate were seeded one day prior to treatment by serially diluted drugs or in combination with indicated protein/peptides. The viability of treated cells was quantified by their ability to reduce tetrazolium salt 3-(4,5-dimethylthiazol-2-y)-2,5-diphenyl tetrasodium bromide (MTT, Sigma) to a formazan dye whose absorbance is detectable at 570 nm. The IC50 value was defined as the dose of taxol that inhibited cell growth by 50%.
# [2] = test system: M2182tTA; assay: MTT assay of drug sensitivity, M2182tTA cells; type: cell-based, human; settings: for Effect on killing of naive M2182tTA cells by taxol: agent added with taxol
# Protocol: as §1
# [3] = test system: Clone 18 cells; assay: TUNEL assay of apoptosis, clone 18 cells; type: cell-based, human; settings: clone 18, TSP-1 plus taxol
# Protocol: For subsequent plate assays of the effects of taxol and other drugs on colony formation, 1×10^4 cells per 10 cm plate or per each well of six-well plate were seeded one day prior to drug treatment at the concentrations indicated. After 7 to 14 days exposure to drug, the resistant colonies were stained with 0.5% crystal violet solution and photographed. For quantitative determination of the surviving fraction, the collection of crystal violet stained colonies were incubated with 0.5 ml of DMSO overnight and the absorbance at 570 nm of dye extracted solution was measured. The fraction of surviving cells was calculated relative to non-treated controls. Results were averaged from at least two to three independent experiments. For IC50 determination, 3×10^3 cells per well of a 96-well plate were seeded one day prior to treatment by serially diluted drugs or in combination with indicated protein/peptides. The viability of treated cells was quantified by their ability to reduce tetrazolium salt 3-(4,5-dimethylthiazol-2-y)-2,5-diphenyl tetrasodium bromide (MTT, Sigma) to a formazan dye whose absorbance is detectable at 570 nm. The IC50 value was defined as the dose of taxol that inhibited cell growth by 50%. […]
# [4] = test system: Clone 18
# Protocol: as §1
# [5] = agent added with adriamycin, etoposide, vinblastine, vincristine or epothilone B
compound,measurement,setting,value
"CC[C@]1(O)C[C@H]2CN(CCc3c([nH]c4ccccc34)[C@@](C(=O)OC)(c3cc4c(cc3OC)N(C=O)[C@H]3[C@@](O)(C(=O)OC)[C@H](OC(C)=O)[C@]5(CC)C=CCN6CC[C@]43[C@@H]65)C2)C1 [Vincristine, vincristine]",Reduced killing of clone 18 cells (versus parental cells),[1],No evidence of reduced killing
GVITRIR (human) [ABT-510],Effect on killing of naive M2182tTA cells by taxol,[2]; MTT assay,not and absence of any detectable effect
same,Effect on taxol resistance / taxol cytotoxicity of clone 18,[1],absence of any detectable effect
same,Effect on taxol resistance / taxol cytotoxicity of clone 18,[1]; listed as ABT510,no effect
"COc1cccc2c1C(=O)c1c(O)c3c(c(O)c1C2=O)C[C@@](O)(C(=O)CO)C[C@@H]3O[C@H]1C[C@H](N)[C@H](O)[C@H](C)O1 [Adriamycin, adriamycin]",Reduced killing of clone 18 cells (versus parental cells),[1],No evidence of reduced killing
KRFYGGMWKK [4NGG],Effect on taxol resistance / taxol cytotoxicity of clone 18,[1],no effect
KRFYVVMWKK [4N1K],Effect on taxol resistance / taxol cytotoxicity of clone 18,[1],dose-dependent partial reversal
pertussus toxin,Cells that survive taxol treatment,"[2]; M2182tTA, 0.5 μg/ml pertussis toxin, MTT assay",An increase in cells that survive taxol treatment
"COc1cc([C@@H]2c3cc4c(cc3[C@@H](O[C@@H]3O[C@@H]5CO[C@@H](C)O[C@H]5[C@H](O)[C@H]3O)[C@H]3COC(=O)[C@H]23)OCO4)cc(OC)c1O [Etoposide, etoposide]",Reduced killing of clone 18 cells (versus parental cells),[1],No evidence of reduced killing
C/C(=C\c1csc(C)n1)[C@@H]1C[C@@H]2O[C@]2(C)CCC[C@H](C)[C@H](O)[C@@H](C)C(=O)C(C)(C)[C@@H](O)CC(=O)O1 [Epothilone B],Reduced killing of clone 18 cells (versus parental cells),[1],No evidence of reduced killing
same,Fold of resistance (Clone 18/M2182tTA),[1],0.9
"CC[C@]1(O)C[C@@H]2CN(CCc3c([nH]c4ccccc34)[C@@](C(=O)OC)(c3cc4c(cc3OC)N(C)[C@H]3[C@@](O)(C(=O)OC)[C@H](OC(C)=O)[C@]5(CC)C=CCN6CC[C@]43[C@@H]65)C2)C1 [Vinblastine, vinblastine]",Reduced killing of clone 18 cells (versus parental cells),[1],No evidence of reduced killing
"CC(=O)O[C@H]1C(=O)[C@@]2(C)[C@H]([C@H](OC(=O)c3ccccc3)[C@]3(O)C[C@H](OC(=O)[C@H](O)[C@@H](NC(=O)c4ccccc4)c4ccccc4)C(C)=C1C3(C)C)[C@]1(OC(C)=O)CO[C@@H]1C[C@@H]2O [Taxol, Paclitaxel]",Fold of resistance (Clone 18/M2182tTA),[1],approximately two and a half-fold greater
TSP-1: TSP-1 purified from human platelets; extracellular matrix bound adhesive glycoprotein,Effect on sensitivity of M2182tTA cells to other chemotherapeutic drugs,[2]; [5],sensitization was not observed
same,Effect on killing of naive M2182tTA cells by taxol,[2]; MTT assay,reduced survival
same,Taxol-induced apoptosis,[3],dramatically and synergistically increased
same,Effect on taxol resistance / taxol cytotoxicity of clone 18,[4],dose-dependent partial reversal
same,Ability of TSP-1 alone to reduce survival and induce apoptosis,"[1]; TSP-1 alone, at the dosage added to cultures of clone 18 cells",only limited ability to reduce survival and induce apoptosis
same,Effect on killing of clone 18 cells by other chemotherapeutic agents,[1]; [5],no effects
